# US11149028B2, “Methods for treating melanoma using small molecules” (NOVA SOUTHEASTERN UNIVERSITY, priority 2016, dated 2021)
# “Also recorded” adds a separate entry of the source. Like-named read-outs stand apart in the source and are kept apart here.
# Columns and labels:
# [1] = system: M14 cells
# Description: ApoTox-Glo™ Triplex Assay which allows one to simultaneously assess the effect of small molecules on cell viability, toxicity, caspase activity, and cell cycle all in the same well (Niles, A. L.; Moravec, R. A.; Riss, T. L. In vitro viability and cytotoxicity testing and same-well multi-parametric combinations for high throughput screening. Curr Chem Genomics 2009, 3, 33-41) was utilized. First, a mixture of 2 fluorogenic substrates was added to cells. GF-AFC substrate is cell-permeant and non-lytic to cells, allowing the measurement of active protease inside live cells. The second substrate (bis-AAF-R110 Substrate) is not cell-permeable and is only cleaved when proteases are released from cells due to the loss of membrane integrity typical of cell death. This step generates an inversely correlated measurement of cell viability and toxicity.
# The second addition is luminogenic DEVD-peptide substrate for caspase-3/7 and Ultra-Glo™ Recombinant Thermostable Luciferase. Caspase-3/7 cleavage of the substrate generates a luminescent signal which correlates with caspase-3/7 activation as a key indicator of apoptosis. As markers for cytotoxicity and apoptosis are transient, the assay was conducted in time course format with time points at 4, 24, 48, and 72 h.
# M14 #5 cells were plated in 384-well format at a density of 1,250 cells in 5 μL of serum-free DMEM media and incubated at 37° C. in 5% CO2 for 4 h. Control and test compounds were serially diluted in a ratio of 1:3 and added to wells in 4 μL. […] Plates were incubated at 37° C. in 5% CO2 for 4, 24, 48, and 72 h. At the end of each time point Viability/Cytotoxicity™ Reagent was prepared containing 400 μM glycylphenylalanyl-aminofluorocoumarin (GF-AFC) substrate (cleavable by live cell proteases) and 400 μM bis-alanylalanyl-phenylalanyl-rhodamine 110 (bis-AAF-R110) substrate (cleavable by dead cell proteases). 4 μL of the Viability/Cytotoxicity™ Reagent was used per well. The plate was incubated for 30 min at 37° C. Fluorescence was read at λEx=400 nm and λEm=505 nm for GF-AFC and λEx=485 nm and λEm=520 nm for bis-AAF-R110 on the BioTek Synergy™ 4 Multi-Mode Microplate Reader. Caspase-Glo® 3/7 Reagent was then added in 12 μL volume. The plate was incubated for 30 min at room temperature and luminescence was measured on the BioTek Synergy™ 4 Multi-Mode Microplate Reader.
# [2] = system: WM266-4 cells; experiment: Mitochondrial potential assay; assay type: cell-based, human; settings: 1 and 4 h; time stated at the place
# Description: 5,000 WM266-4 cells were seeded in 100 μL of EMEM medium supplemented with 10% FBS in 24-well plate. The cells were treated with carbonyl cyanide m-chlorophenyl hydrazone (CCCP, 25-50 μM) as a pharmacological control and 1-100 μM of 2155-14. After 1, 4, and 24 h, the cells were stained with 200 nM of Mito-Tracker dye (ThermoFisher cat #M22425) and DAPI for 1 h. Finally, the cells were washed with PBS and media was added. The cells were imaged and analyzed using Cytation 5 imager using Cy5 and DAPI filter sets (Biotek Inc, Winoosky, Vt.). To calculate staining intensity, the Object Sum Area value from Cy5 channel was obtained and divided by number of cells using DAPI channel. Both Cy5 and DAPI cell counts were conducted using optimized algorithm in automatic mode. 3 replicate wells were used.
# [3] = system: LC3-II and beclin-1 in M14 cells; experiment: Western blotting for LC3 and beclin-1, M14; assay type: cell-based, human; settings: 24 h, 100 μM
# Description: 1×10^6 of WM266-4 or M14 cells were seeded in 3 mL of E-MEM or RPMI-1640 medium supplemented with 10% FBS and 1% penicillin/streptomycin in 6 cm plates. […] After washing with TBST, the membranes were treated with chemilumiscent horseradish peroxidase detection reagent (Thermo Scientific, Cat #32209) and exposed to autoradiography film (Denville Scientific, Inc., Metuchen, N.J., USA, cat #E3018). ImageJ software (NIH, Bethesda, Md.) was used to quantify the intensity of proteins bands. The protein bands were normalized against loading controls (β-actin) and expressed as a fold of an untreated control.
# [4] = system: calpain in WM266-4 cells; experiment: Calpain activity assay (Calpain-Glo); assay type: cell-based, human; settings: 100 μM; 30 min, 4 and 24 h
# Description: The Calpain-Glo Protease Assay (Promega cat #) was used to measure the calpain enzyme activity in live cells, according to the manufacturer's instructions. 1,250 of WM-266-4 cells were plated in 384-well white TC-treated plates in 5 μL of serum-free EMEM media. The cells were incubated overnight at 37° C., 5% CO2 and 95% relative humidity and 5 μL of test compounds 2155-14, (100 μM), calpain inhibitor III and PD151746 (25 μM) were added alone or in combination and incubated at 37° C., 5% CO2, and 95% relative humidity for 0.5, 4, and 24 h. After incubation, 10 μL, of a freshly prepared dilution of the Calpain-Glo Reagent stock solution (consisting of Suc-LLVY-Glo™ substrate, Calpain-Glo™ buffer, Luciferin Detection Reagent, and CaCl2) was added to cells at above mentioned times and luminescence was recorded with a Neo 2 microplate reader (Biotek Inc). All experiments were performed in triplicate and the values provided are the calculated average of at least three independent experiments.
# [5] = time course 4-72 h, time stated at the place
compound,measurement,setting,value
"O=C1NC[C@H](Cc2ccccc2)N(C[C@@H]2CCCN2C[C@@H](CC2CCCCC2)N2C[C@H](Cc3ccc(O)cc3)N(CCc3ccccc3)C(=O)C2=O)C1=O [Compound 2155-14, (S)-1((R)-1((S)-2-(((S)-6-benzyl-2,3-dioxopiperazin-1-yl)methyl)pyrrolidin-1-yl)-3-cyclohexylpropan-2-yl)-5-(4-hydroxybenzyl)-4-phenethylpiperazine-2,3-dione]",caspase signal,[1]; 24 h,550 % of untreated control
same,caspase signal,[1]; 48 h,400 % of untreated control
same,ApoTox caspase-3/7 activity,[1]; [5],no markers for apoptosis and cytotoxicity; also recorded: The 24 h time point was characterized by a significant spike in caspase activity; also recorded: By 72 h the caspase signal has decayed
same,ApoTox viability (live cell protease),[1]; [5],no effect on cell viability as measured by live cell protease at the 4 h time point; also recorded: dose dependent response at 48 h
same,mitochondrial potential,[2],"no significant effect 1 h after the addition of compounds; also recorded: At 4 h, mitochondrial potential was decreased; also recorded: no significance between untreated control and cells treated with 2155-14"
same,"LC3-II level, M14",[3],dose dependent increase
same,"beclin-1 level, M14",[3],dose dependent increase
same,calpain activity,[4],Calpain activity at 30 min was at the baseline level; also recorded: time-dependent increase of activity at 4 and 24 h
